Laboratory results taken from patent US20050143463A1, “Method of inhibiting angiogenesis” (THE QUEEN ELIZABETH HOSPITAL RESEARCH FOUNDATION INC., priority 2002, published 2005).

Tested on: chicken chorioallantoic membrane (CAM)
Assay: Chicken chorioallantoic membrane (CAM) assay for angiogenesis
Format: in vivo
Conditions: for Vein length (%) / Artery length (%) / Total vessel length (%) / Vein Diameter (%): % of control, Mean ± SEM
Description: Fertilised chicken eggs (HiChick Breeding Co, Kapunda, South Australia) were incubated for three days at 38° C. On Day 3 the embryos were cracked out of the egg and into a cup made of plastic piping, with plastic film stretched over the top to form a hammock for the egg to be suspended in. Two ml of DMEM containing penicillin and streptomycin was added to each cup prior to the egg being added. A petri dish on the top maintained sterility. Incubation continued in a humidified 37° C. incubator.
On Day 4 the chorioallantoic membrane (CAM) begins to grow, and pictures were taken of each embryo at ×5 to measure the CAM area using image analysis software (Video Pro 32, Leading Edge Pty Ltd, South Australia).
Embryos were then grouped according to their CAM area, with a control embryo in each for comparison. Grouping is critical as in these early developmental stages changes in the CAM growth are dramatic. Relatively small differences in size on Day 4 translate to large differences in the CAM on Day 5. Treatment was applied in methylcellulose discs, which were dried under vacuum overnight. The methylcellulose discs were applied to the top of the CAM, and at the beginning of treatment were at least three to four-fold bigger than the CAM area, meaning treatment covered the entire CAM surface.
On Day 5 skim milk with contrast medium was injected into the CAM. Pictures were then taken at various levels of magnification up to ×63. Quantitative measurements were made from ×5 pictures. CAM area, and vein and artery lengths were measured using image analysis (Video Pro 32, Leading Edge Pty Ltd, South Australia). Relative vessel lengths were then calculated as the total length/CAM area. Statistical analysis was made using SigmaStat and OneWay ANOVA with p<0.05 as the level of significance.

With `CCC(C)CCCCCCCCCCC(=O)O` (centres unmarked) [12-MTA, 12-methyltetradecanoic acid] the “Vein length (%)” value (25 nmol on methylcellulose disc) was 82.1 ± 22.9%, the “Artery length (%)” value (25 nmol) was 81.8 ± 11.6% and the “Total vessel length (%)” value (25 nmol) was 79.8 ± 15.0%. The “Vein Diameter (%)” value (25 nmol) was 89.3 ± 25.2%, the “Vein length (%)” value (50 nmol on methylcellulose disc) was 74.4 ± 20.8% and the “Artery length (%)” value (50 nmol) was 78.8 ± 12.2%. For the same molecule, the “Total vessel length (%)” value (50 nmol) was 74.9 ± 14.7%, the “Vein Diameter (%)” value (50 nmol) was 59.1 ± 11.2% and the “Vein length (%)” value (100 nmol on methylcellulose disc) was 46.0 ± 8.7^1%. For the same molecule, the “Artery length (%)” value (100 nmol) was 63.8 ± 4.0^1%, the “Total vessel length (%)” value (100 nmol) was 54.9 ± 4.3^1% and the “Vein Diameter (%)” value (100 nmol) was 45.9 ± 10.0^1%. The “number of branching capillaries sprouting from the main vessels” value (500 nmol) was “reduction”, the vessel area (500 nmol) was “diminished” and the “cytotoxicity to the embryo” value (chicken embryo, CAM assay) was “not cytotoxic”. For the same molecule, the “inhibition of angiogenesis in the CAM assay, dose dependent (in words)” value (dose dependent manner) was “inhibit angiogenesis” and the “effect of the lowest dose on vein length, artery length, total vessel length and vein diameter (in words)” value (lowest dose (25 nmol)) was “inhibited”.
